Reference: patent publication US9119816B2, “Method for prevention or treatment of diabetic angiogenesis impairment using C-peptide” (KANGWON NATIONAL UNIVERSITY UNIVERSITY-INDUSTRY COOPERATION …, priority 2012, dated 2015)
Entries after “also recorded” stand apart in the source; their conditions may differ.

What was measured:
HUVECs [1] = assay: Inhibition of C-peptide-induced tube formation by HUVECs; type: cell-based, human; details: 0.5 nM C-peptide, 24-30 h
Experimental: (§1) FIG. 4A is a graph in which tube formation is quantified by confocal microscopy and results are represented as mean±S.D. from three independent experiments after HUVECs were seeded onto a Matrigel layer and incubated for 24-30 h with 0.5 nM C-peptide (C-pep) in the presence of the indicated concentrations of L-NAME, PD98058, and wortmannin, and
(§2) The formation of capillary-like networks by HUVECs on growth factor-reduced Matrigel (BD Biosciences, Franklin Lakes, N.J.) was achieved using a method known in the art. Briefly, 24-well culture plates were coated with Matrigel according to the manufacturer's instructions. HUVECs were seeded onto a layer of Matrigel at a density of 4×10^5 cells/well, and treated with VEGF or C-peptide at 37° C. for 24 to 30 h. The degree of tube formation was quantified by measuring the length of tubes from the images using the FV-300 software.
(§3) The roles of ERK1/2, PI3K/Akt, and NO in C-peptide-induced angiogenesis were examined using PD98059, wortmannin, and L-NG-nitroarginine methyl ester (L-NAME), respectively.

HUVECs [2] = assay: Inhibition of VEGF-induced tube formation by HUVECs; type: cell-based, human; details: 10 ng/ml VEGF, 24-30 h
Experimental: as §1, with “4B” for “4A”, “10 ng/ml VEGF” for “0.5 nM C-peptide (C-pep)”, “wortmannin.” for “wortmannin, and”
as §2, §3

HUVECs [3] = assay: Tube formation assay on Matrigel; type: cell-based, human; details: 24 to 30 h; for formation of capillary-like networks (tube formation): VEGF 10 ng/ml
Experimental: To examine whether C-peptide can activate angiogenesis in vitro, a tube formation assay was conducted in a Matrigel layer using HUVECs.
as §2

[4] = In vivo Matrigel plug assay; details: mice, s.c. 0.5 ml Matrigel with 5 nM C-peptide or 100 ng/ml VEGF, 7 days, compared with control
Experimental: (§4) Male C57BL/6 mice, six weeks old, were purchased from Nara Biotech (Seoul, Korea). The mice were maintained in temperature-controlled clean racks with a 12-h light/dark cycle. All experiments were performed in accordance with the guidelines of the Institutional Animal Care and Use Ethics Committee of Kangwon National University.
A matrigel plug assay was used to examine whether C-peptide can induce angiogenesis in vivo. In this regard, in vivo Matrigel plug assays were performed according to a method known in the art.
Briefly, mice were injected subcutaneously with 0.5 ml of Matrigel containing 100 ng/ml VEGF or 5 nM C-peptide, and 10 U heparin. After 7 days, the Matrigel plugs were removed from the subcutaneous region, and photographed using a camera (Sony, Japan).

HUVECs [5] = assay: Wound healing (scratch) assay (HUVECs); type: cell-based, human; details: 24 h, C-peptide 0.5 nM, VEGF 10 ng/ml, p<0.01
Experimental: (§5) HUVECs and NIH3T3 cells were cultured on 6-well culture plates coated with gelatin. After being obtained, confluent cell layers were starved with low-serum media for 6 h, stained with 1 μM calcein-AM for 30 min, and wounded with a plastic scraper. Low-serum media and cell debris were removed, followed by replenishing the cell culture with 2 ml of low-serum media containing VEGF or C-peptide. Cells were then incubated at 37° C. for 24 h. Migrated cells was counted from images obtained using a confocal microscope (FV-300, Olympus).

NO = assay: Intracellular NO production (DAF-FM DA, confocal microscopy) in HUVECs; type: cell-based, human; details: 2 h, 0.5 nM C-peptide (p<0.05) or 10 ng/ml VEGF (p<0.01)
Experimental: Since phosphorylation of Akt increases NO production by VEGF, which is the important factor mediating angiogenesis, an examination was made to see whether C-peptide can stimulate NO production. For this, intracellular NO levels were measured using DAF-FM DA (diaminofluorescein-FM diacetate, Molecular Probes, Eugene, Oreg.) according to a method known in the art.
Briefly, HUVECs were treated with VEGF or C-peptide in phenol red-free low-serum media for indicated times and incubated with 2 μM DAF-FM DA for the final 1 h. Thereafter, the cells were washed with low-serum media before confocal microscropy. Levels of intracellular NO were determined by comparing the fluorescence intensities of treated cells with those of untreated control cells and expressing them as fold differences.

Akt = Akt phosphorylation by Western blot in HUVECs; type: cell-based, human; details: for Akt phosphorylation: 0.5 nM C-peptide or 10 ng/ml VEGF, time-dependent
Experimental: (§6) Since the activation of ERK1/2 and Akt is critical for the induction of cell migration and tube formation, an examination was made of the effect of C-peptide on ERK1/2 and AKT phosphorylation in HUVECs.
(§7) Phosphorylation of ERK1/2 and Akt was determined by Western blot analyses. Briefly, HUVECs were scraped off with ice-cold lysis buffer (50 mM Tris-HCl, pH 7.5, 1% Triton X-100, 150 mM NaCl, 1 mM EDTA, 0.1 mM PMSF, 10 μg/mL aprotinin, and 10 μg/mL leupeptin) and centrifuged at 18,000 g for 10 min at 4° C. The resulting cell lysates were separated by SDS-PAGE and transferred to polyvinylidene fluoride membranes.
(§8) Protein bands were visualized by exposure to X-ray films and a chemiluminescent substrate (Pierce, Rockford, Ill.). Levels of protein phosphorylation were normalized using the total amount of the proteins, and are expressed relative to unstimulated control levels (CON) in FIGS. 3A and 3B.

HUVECs [6] = assay: Transwell migration assay (HUVECs); type: cell-based, human; details: 12 h; for chemotactic migration of endothelial cells: VEGF 10 ng/ml
Experimental: HUVECs were isolated from the human umbilical cord vein according to a well known process, and cells from passages 3 to 6 were used in the following experiments. Cells were inoculated into M199 culture media (supplemented with 20% FBS, 3 ng/ml bFGF, 5 U/ml heparin, 100 U/ml penicillin, and 100 μg/ml streptomycin) in 2% gelatin-coated coverslips, dishes, or plates, and grown at 37° C. in a humidified 5% CO2 incubator.
For experiments, cells were serum starved for 6 h by incubation in low-serum medium (M199 supplemented as above, but with only 1% FBS), and treated for a suitable time with 10 ng/ml VEGF in the presence or absence of various concentrations of C-peptide.
(§9) Angiogenesis is accompanied by endothelial cell migration and capillary-like network formation. To evaluate the ability of C-peptide to induce angiogenesis by examining whether C-peptide stimulates endothelial cell migration, the chemotactic motility of HUVECs and NIH3T3 cells were assayed using TRANSWELL® Permeable Supports (Costar, Corning, N.Y.).
(§10) In detail, the lower surface of the filters was coated with 5 μl of 2% gelatin. Low-serum media containing VEGF, FGF-2 or C-peptide were placed in the lower wells. HUVECs or NIH3T3 cells were seeded at a density of 1×10^5 cells per 200 μl of the low-serum medium in each of the upper wells, and incubated at 37° C. for 12 h. Cells were fixed with 100% methanol for 15 min, stained with hematoxylin and eosin, and dried. The average number of migrated cells in three randomly chosen fields of view per insert was taken to quantify the extent of migration using a fluorescence inverted microscope (Olympus).

ERK1/2 = ERK1/2 phosphorylation by Western blot in HUVECs; type: cell-based, human; details: for ERK1/2 phosphorylation: 0.5 nM C-peptide or 10 ng/ml VEGF, time-dependent
Experimental: as §6, §7, §8

NIH3T3 cells [7] = assay: Wound healing (scratch) assay (NIH3T3 fibroblasts); type: cell-based; details: NIH3T3, 24 h; C-peptide 0.5 nM, FGF-2 1 ng/ml; p<0.01
Experimental: as §5
C-peptide-induced cell migration was further investigated by the wound-healing assay. […] FGF-2 also stimulated chemotactic migration and wound healing in fibroblast cells (p<0.01; FIG. 6).

[8] = Hair follicle regeneration and blood vessel formation around wound (whole-mount PECAM-1 immunostaining); type: in vivo; details: diabetic mice + C-peptide vs diabetic mice, 14 days after wounding
Experimental: The effect of C-peptide on the regeneration of hair follicles and the formation of blood vessels was observed by whole-mount immunostaining. In this regard, 14 days after wounding, mice were sacrificed, and the dorsal skin was removed for observation of hair follicles and blood vessels. Skin tissues from all the dead mice were excised using a scissor in order to avoid damaging its healing edge, fixed immediately in 4% paraformaldehyde in PBS overnight, and stored overnight in methanol at −20° C. For immunohistochemistry, tissue samples were blocked with 2% BSA in 0.1% TritonX-100 in TBS, and incubated with goat-polyclonal platelet endothelial cell adhesion molecule-I antibody for 2 d, followed by probing with Alexa-546-conjugated rabbit anti-goat IgG and then confocal microscopy.

NIH3T3 cells [9] = assay: Transwell migration assay (NIH3T3 fibroblasts); type: cell-based; details: 12 h; for chemotactic migration of fibroblast cells: FGF-2 1 ng/ml
Experimental: NIH3T3 fibroblasts obtained from ATCC (American Type Culture Collection) were grown in a DMEM medium supplemented with 10% calf serum, 100 U/ml penicillin, and 100 μg/ml streptomycin.
NIH3T3 cells were serum starved for 12 hrs in a low-serum medium (DMEM supplemented as above, but with only 0.1% calf serum).
as §9, §10
To elucidate the role of C-peptide in the migration of chemotactic fibroblast cells, NIH3T3 cells were treated with C-peptide for 12 h.

[10] = Cutaneous wound healing in streptozotocin-induced diabetic mice; type: in vivo
Experimental: as §4
Diabetic mice were generated by single intraperitoneal injection of a 100 mM citrate buffer (pH 4.5) containing streptozotocin in (150 mg/kg body weight). After injection, mice were supplied overnight with 10% sucrose to prevent sudden hypoglycemic shock. Sufficient hyperglycemia was observed two days after injection, as measured for blood glucose by the Accu-Check Active blood glucose monitor (Roch Diagnostics, Germany) and for glucosurea by Uriscan (TD Diagnostics, Young-In, Korea). After 1 week, mice with non-fasting blood glucose levels greater than 16 mM, polyuria, and glucosuria were defined diabetic and used for experiment. […]
The dorsal skin of the vertebral column was shaved with Veet cream before creating a wound. Full-thickness skin wounds, 4 mm in diameter, were created on the dorsal surface of the hind limbs with a biopsy punch, and closure was monitored with a digital camera. Open wound size was measured by tracing the wound margin using vernier calipers at regular intervals of two days, and monitored with a digital camera. […]

| Molecule | inhibition of C-peptide-stimulated tube formation (HUVECs [1]) | effect on VEGF-induced tube formation (HUVECs [2]) | formation of capillary-like networks (tube formation) (HUVECs [3]) | new blood vessel formation in Matrigel plug [4] | cell migration to the wounded area (HUVECs [5]) | level of intracellular NO (NO) | Akt phosphorylation (Akt) | chemotactic migration of endothelial cells (HUVECs [6]) | ERK1/2 phosphorylation (ERK1/2) | cell migration to the wounded area (fibroblasts) (NIH3T3 cells [7]) | chemotactic migration of fibroblast cells (NIH3T3 cells [9]) | further results |
| --- | --- | --- | --- | --- | --- | --- | --- | --- | --- | --- | --- | --- |
| COC(=O)[C@@H](N)CCCNC(=N)N[N+](=O)[O-] [L-NAME, L-NG-nitroarginine methyl ester] | dose-dependent inhibition | prevented | – | – | – | – | – | – | – | – | – | – |
| vascular endothelial growth factor [VEGF, reference compound] | – | – | induced | similar | stimulated | higher level | induced | stimulated | induced | – | – | – |
| C-peptide | – | – | stimulated | significantly higher induction | significantly stimulated | significantly elevated | induced | dose-dependent increase | increased | significantly stimulated | dose-dependent increase | concentration of maximal effect on formation of capillary-like networks (HUVECs [3]): 0.5 nM; regeneration (number) of hair follicles around wound [8]: significant increase; also recorded: increased; formation (number) of blood vessels around wound ([8]; PECAM-1 staining): significant increase; also recorded: increased; time of maximal effect on Akt phosphorylation (Akt; 0.5 nM C-peptide): 15 min; concentration of maximal effect on chemotactic migration of fibroblast cells (NIH3T3 cells [9]): 1 nM; wound area versus normal mice ([10]; STZ-diabetic mice, C-peptide 35 pmol/kg/min s.c. osmotic pump, 4 mm wound, 4 and 10 days after skin injury): no significant differences; wound closure compared with diabetic mice ([10]; diabetic mice + C-peptide vs diabetic mice): accelerated; concentration of maximal effect on chemotactic migration of endothelial cells (HUVECs [6]): 0.5 nM; ERK1/2 activation maintained until (ERK1/2; 0.5 nM C-peptide): 60 min; time of maximal stimulation of ERK1/2 phosphorylation (ERK1/2; 0.5 nM C-peptide): 15 min |
| COc1cccc(-c2cc(=O)c3ccccc3o2)c1N [PD98059] | inhibited | prevented | – | – | – | – | – | – | – | – | – | concentration of maximal inhibition of C-peptide-stimulated tube formation (HUVECs [1]): 10 µM |
| FGF-2: growth factor used as comparator for fibroblast migration [reference compound] | – | – | – | – | – | – | – | – | – | stimulated | stimulated | – |
